Results: ChEMBL document CHEMBL5154849, “Overcoming undesirable hERG affinity by incorporating fluorine atoms: A case of MAO-B inhibitors derived from 1 H-pyrrolo-[3,2-c]quinolines” (Eur J Med Chem, 2022)

Assay: in vitro
Details: rat, liver microsomes

COc1cccc(Cn2ccc3c(N4CCC(F)(F)CC4)nc4ccccc4c32)c1
CLint scaled at 10 µM: 43 mL/min/kg
